In ChEMBL document CHEMBL1135949, “Pyrrolylquinoxalinediones carrying a piperazine residue represent highly potent and selective ligands to the homomeric kainate receptor GluR5” (Bioorg Med Chem Lett, 2002) one finds Ki data, which are given here for 11 molecules.

Assay [1] has as its target Glutamate receptor ionotropic, kainate 1 (Homo sapiens, UniProt P39086). Briefly: Binding affinity towards cloned human GluR5 subunit stably expressed in cultured HEK293 cells using [3]H-kainate as radioligand. The class given is cell-based.
Assay [2] addresses T1, Glutamate receptor ionotropic, kainate 5 (Homo sapiens, UniProt Q16478).
T1 sequence (Q16478 whole entry): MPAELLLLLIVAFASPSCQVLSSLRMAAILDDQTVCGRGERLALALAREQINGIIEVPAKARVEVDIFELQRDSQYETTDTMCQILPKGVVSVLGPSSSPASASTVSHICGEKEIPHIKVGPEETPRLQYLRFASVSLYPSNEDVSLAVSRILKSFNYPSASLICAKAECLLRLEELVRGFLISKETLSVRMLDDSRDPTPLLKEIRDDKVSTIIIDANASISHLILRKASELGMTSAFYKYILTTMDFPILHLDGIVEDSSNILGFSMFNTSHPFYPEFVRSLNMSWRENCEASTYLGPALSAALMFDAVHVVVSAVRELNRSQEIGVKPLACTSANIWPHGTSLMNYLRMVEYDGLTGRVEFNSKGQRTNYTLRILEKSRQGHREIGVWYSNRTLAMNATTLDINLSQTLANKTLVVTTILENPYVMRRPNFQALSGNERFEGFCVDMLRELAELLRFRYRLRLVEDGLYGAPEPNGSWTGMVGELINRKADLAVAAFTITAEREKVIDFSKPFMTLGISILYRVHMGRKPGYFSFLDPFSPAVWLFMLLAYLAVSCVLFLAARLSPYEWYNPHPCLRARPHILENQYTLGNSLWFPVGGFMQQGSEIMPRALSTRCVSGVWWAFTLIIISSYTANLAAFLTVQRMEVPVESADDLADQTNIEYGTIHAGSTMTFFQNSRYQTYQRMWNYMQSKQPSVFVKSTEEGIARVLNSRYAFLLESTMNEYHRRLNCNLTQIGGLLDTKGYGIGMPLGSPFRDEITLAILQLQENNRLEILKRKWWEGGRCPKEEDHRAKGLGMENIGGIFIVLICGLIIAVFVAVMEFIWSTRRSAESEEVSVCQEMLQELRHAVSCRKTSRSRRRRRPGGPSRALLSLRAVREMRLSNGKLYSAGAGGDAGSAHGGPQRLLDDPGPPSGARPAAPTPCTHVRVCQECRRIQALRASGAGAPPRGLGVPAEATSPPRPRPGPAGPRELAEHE
The assay is described as follows: Binding affinity towards Kai-2 using [3]H-kainate as the radioligand.

Assay [3] addresses Glutamate receptor ionotropic, kainate 2 (Homo sapiens, UniProt Q13002). Briefly: Binding affinity for human GluR6 expressed in HEK293 cells using [3]H-kainate. The assay is classed as cell-based.
Assay [4] addresses T1, Glutamate receptor ionotropic, kainate 5. The assay is described as follows: Binding affinity towards cloned human Kai-2 subunit stably expressed in cultured HEK293 cells using [3]H-kainate as radioligand. The assay is classed as cell-based.

Sequence of Glutamate receptor ionotropic, kainate 1 (P39086 whole entry): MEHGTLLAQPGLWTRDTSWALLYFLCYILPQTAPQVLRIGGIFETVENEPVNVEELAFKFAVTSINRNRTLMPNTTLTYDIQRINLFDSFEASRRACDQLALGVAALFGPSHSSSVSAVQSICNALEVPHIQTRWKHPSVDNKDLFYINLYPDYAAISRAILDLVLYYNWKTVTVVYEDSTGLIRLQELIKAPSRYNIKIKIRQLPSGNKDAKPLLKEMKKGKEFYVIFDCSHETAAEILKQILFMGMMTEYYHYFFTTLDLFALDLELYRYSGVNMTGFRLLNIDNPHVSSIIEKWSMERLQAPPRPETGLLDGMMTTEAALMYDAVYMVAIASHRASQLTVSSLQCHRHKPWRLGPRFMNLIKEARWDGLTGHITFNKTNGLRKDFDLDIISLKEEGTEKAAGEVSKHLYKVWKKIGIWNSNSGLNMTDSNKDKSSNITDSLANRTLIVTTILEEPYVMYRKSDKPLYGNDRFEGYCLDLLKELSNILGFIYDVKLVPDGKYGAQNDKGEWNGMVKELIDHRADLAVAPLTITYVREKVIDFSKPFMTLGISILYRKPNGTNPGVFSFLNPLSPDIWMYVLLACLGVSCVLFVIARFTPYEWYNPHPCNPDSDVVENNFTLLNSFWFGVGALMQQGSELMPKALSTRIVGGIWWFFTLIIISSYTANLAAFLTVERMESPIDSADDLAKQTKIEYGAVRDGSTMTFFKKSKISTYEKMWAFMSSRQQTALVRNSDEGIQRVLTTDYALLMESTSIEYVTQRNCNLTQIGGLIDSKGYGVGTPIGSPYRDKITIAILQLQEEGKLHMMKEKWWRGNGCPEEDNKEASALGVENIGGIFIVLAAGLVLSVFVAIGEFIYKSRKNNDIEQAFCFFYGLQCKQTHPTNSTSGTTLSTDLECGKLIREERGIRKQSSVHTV
Sequence of Glutamate receptor ionotropic, kainate 2 (Q13002 whole entry): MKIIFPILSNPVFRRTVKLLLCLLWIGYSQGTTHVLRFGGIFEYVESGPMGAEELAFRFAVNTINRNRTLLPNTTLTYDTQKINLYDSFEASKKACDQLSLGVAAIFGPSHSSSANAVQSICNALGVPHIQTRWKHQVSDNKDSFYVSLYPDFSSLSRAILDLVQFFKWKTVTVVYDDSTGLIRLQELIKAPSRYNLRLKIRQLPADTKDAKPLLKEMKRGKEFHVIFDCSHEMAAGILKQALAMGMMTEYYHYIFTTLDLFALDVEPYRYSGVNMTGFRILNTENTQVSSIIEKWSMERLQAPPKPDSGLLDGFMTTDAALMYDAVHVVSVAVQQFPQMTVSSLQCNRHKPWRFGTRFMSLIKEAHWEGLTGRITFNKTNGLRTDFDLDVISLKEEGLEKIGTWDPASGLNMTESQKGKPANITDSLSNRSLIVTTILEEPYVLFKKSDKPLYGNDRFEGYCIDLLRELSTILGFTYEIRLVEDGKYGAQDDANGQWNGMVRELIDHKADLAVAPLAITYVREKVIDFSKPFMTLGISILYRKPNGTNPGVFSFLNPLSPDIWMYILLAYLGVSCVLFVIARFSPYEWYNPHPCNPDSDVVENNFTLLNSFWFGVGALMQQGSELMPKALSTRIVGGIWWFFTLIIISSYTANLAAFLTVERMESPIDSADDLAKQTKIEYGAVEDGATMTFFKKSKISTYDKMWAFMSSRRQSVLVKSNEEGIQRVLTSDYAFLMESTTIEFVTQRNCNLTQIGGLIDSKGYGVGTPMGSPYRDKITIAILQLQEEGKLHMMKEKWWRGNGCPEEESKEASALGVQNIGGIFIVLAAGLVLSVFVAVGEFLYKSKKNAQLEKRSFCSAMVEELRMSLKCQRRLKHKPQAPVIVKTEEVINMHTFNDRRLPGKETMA

Regarding `O=C(O)Cn1c(=O)c(=O)[nH]c2cc([N+](=O)[O-])c(-n3ccc(C(=O)O)c3)cc21`, the Ki in assay [1] stood at 1.4 µM; in assay [2], 11 µM; in assay [3], 5.8 µM.

In the case of `O=C(O)CCn1c(=O)c(=O)[nH]c2cc([N+](=O)[O-])c(-n3cccc3)cc21`, the inhibition constant (Ki) in assay [1] was 2.4 µM; in assay [3], 1.2 µM; in assay [4] it was 25 µM.

For `O=C(O)Cn1c(=O)c(=O)[nH]c2cc([N+](=O)[O-])c(-n3ccc(CNCCCc4ccccc4)c3)cc21`, the Ki was found to be 6.2 µM in assay [3] and 20 µM in assay [4].

On to `NCc1ccn(-c2cc3c(cc2[N+](=O)[O-])[nH]c(=O)c(=O)n3CC(=O)O)c1`, for which the Ki in assay [2] came out at 9.8 µM; in assay [3] it was 1.5 µM.

In the case of `O=C(O)Cn1c(=O)c(=O)[nH]c2cc([N+](=O)[O-])c(-n3ccc(CN4CCCCC4)c3)cc21`, the Ki is 28 µM in assay [3] and above 30 µM in assay [4].

Regarding `O=C(O)Cn1c(=O)c(=O)[nH]c2cc(C(F)(F)F)c(-n3ccc(CNC(=O)Nc4ccc([N+](=O)[O-])cc4)c3)cc21`, the figures for the Ki in assay [1], in assay [2] and in assay [3] were 0.1 µM, 12 µM and 0.61 µM, respectively.

On to `CN(Cc1ccccc1)Cc1ccn(-c2cc3c(cc2[N+](=O)[O-])[nH]c(=O)c(=O)n3CCC(=O)O)c1`, for which the values for the Ki in assay [3] and in assay [4] were 23 µM and above 30 µM, respectively.

Turning to `O=C(O)Cn1c(=O)c(=O)[nH]c2cc([N+](=O)[O-])c(-n3ccc(CN4CCN(CCc5ccccc5)CC4)c3)cc21`, the Ki in assay [3] turned out to be 1.4 µM; in assay [4], 25 µM.

Turning to `O=C(O)Cn1c(=O)c(=O)[nH]c2cc([N+](=O)[O-])c(-n3ccc(CN4CCN(Cc5ccccc5)CC4)c3)cc21`, the Ki in assay [3] was determined as 4.1 µM; in assay [4], 20 µM.

For the molecule `O=C(O)Cn1c(=O)c(=O)[nH]c2cc([N+](=O)[O-])c(-n3ccc(CN4CCC(c5ccccc5)CC4)c3)cc21`, the Ki came out at 3.6 µM in assay [3] and 18 µM in assay [4].

In the case of `O=C(O)Cn1c(=O)c(=O)[nH]c2cc([N+](=O)[O-])c(-n3cccc3)cc21`, the values for the inhibition constant (Ki) in assay [3] and in assay [4] were 3.9 µM and 1.3 µM, respectively.

The Ki is the equilibrium dissociation constant of an inhibitor or competing ligand from its target.
